Measurements reported in the supplement of paper PMC10883282.
± gives the standard deviation of the averaged measurements.

Test system: SW872
Assay: relative viability vs DMSO control (72 h) (fraction); higher = more viable cells
Summary of the method: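 Sarcoma cell lines were seeded in 384-well plates at densities chosen for 80–90% confluence, then 24 h later given 2.5 µl of serially diluted compound drawn from source plates spanning 10 mM to 0.0002 mM. They were held 72 h at 37 °C, 5% CO2, with 0.1% DMSO vehicle and a 5 µM positive control included. Relative viability was read with ATPLite as percent growth and averaged over up to triplicate wells. Rescaling placed full at 1 and none at 0.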

| SMILES | relative viability (0.00017 µM) | relative viability (0.00051 µM) | relative viability (0.00152 µM) | relative viability (0.00457 µM) | relative viability (0.01372 µM) | relative viability (0.04115 µM) | relative viability (0.1235 µM) | relative viability (0.3704 µM) | relative viability (1.111 µM) | relative viability (3.333 µM) | relative viability (10 µM) |
| --- | --- | --- | --- | --- | --- | --- | --- | --- | --- | --- | --- |
| CCN1CCN(Cc2ccc(Nc3ncc(F)c(-c4cc(F)c5nc(C)n(C(C)C)c5c4)n3)nc2)CC1 [Abemaciclib] | 1.01 ± 0.08 | 1.03 ± 0.038 | 1.01 ± 0.044 | 1.02 ± 0.046 | 1.01 ± 0.052 | 0.95 ± 0.095 | 0.874 ± 0.037 | 0.742 ± 0.025 | 0.678 ± 0.032 | 0.668 ± 0.018 | 0.709 ± 0.04 |
| CC(C)NC(=O)C1CCC(n2c(NC(=O)c3ccc(F)cc3)nc3ccc(CN4CCC(C(C)(C)O)CC4)cc32)CC1 (centres undefined) [Belizatinib] | 1.08 ± 0.04 | 1.07 ± 0.027 | 1.04 ± 0.052 | 1.05 ± 0.033 | 1.07 ± 0.01 | 1.05 ± 0.024 | 1.01 ± 0.019 | 0.817 ± 0.034 | 0.5729 ± 0.0013 | 0.412 ± 0.021 | 0.274 ± 0.0093 |
| CC[C@H](Nc1ncnc2[nH]cnc12)c1nc2cccc(F)c2c(=O)n1-c1ccccc1 [Idelalisib] | 1.09 ± 0.073 | 1.13 ± 0.052 | 1.1 ± 0.034 | 1.1 ± 0.046 | 1.11 ± 0.052 | 1.08 ± 0.055 | 1.07 ± 0.066 | 1.04 ± 0.087 | 0.945 ± 0.043 | 0.876 ± 0.051 | 0.746 ± 0.036 |
| CC(C)(C)c1cc(NC(=O)Nc2ccc(-c3cn4c(n3)sc3cc(OCCN5CCOCC5)ccc34)cc2)no1 [Quizartinib] | 1.05 ± 0.023 | 1.045 ± 0.0071 | 1.05 ± 0.0053 | 1.041 ± 0.0092 | 1.051 ± 0.0052 | 1.04 ± 0.012 | 1.04 ± 0.019 | 1.03 ± 0.037 | 1.029 ± 0.01 | 1.032 ± 0.0056 | 1.02 ± 0.018 |
| Cc1cnc(Nc2ccc(OCCN3CCCC3)cc2)nc1Nc1cccc(S(=O)(=O)NC(C)(C)C)c1 [Fedratinib] | 1.04 ± 0.013 | 1.06 ± 0.027 | 1.05 ± 0.034 | 1.01 ± 0.073 | 1.04 ± 0.044 | 1.03 ± 0.075 | 0.942 ± 0.064 | 0.699 ± 0.049 | 0.408 ± 0.024 | 0.16 ± 0.018 | 0.00193 ± 0.0011 |
| CC1(C)CNc2cc(NC(=O)c3cccnc3NCc3ccncc3)ccc21 [Motesanib] | 1 ± 0.03 | 0.988 ± 0.014 | 0.972 ± 0.025 | 0.971 ± 0.029 | 0.95 ± 0.047 | 0.98 ± 0.012 | 0.971 ± 0.035 | 0.999 ± 0.015 | 0.978 ± 0.021 | 0.958 ± 0.035 | 0.811 ± 0.028 |
| Nc1cc(C(F)(F)F)c(-c2cc(N3CCOCC3)nc(N3CCOCC3)n2)cn1 [Buparlisib] | 0.994 ± 0.037 | 0.96 ± 0.046 | 0.995 ± 0.031 | 0.958 ± 0.019 | 0.964 ± 0.025 | 0.946 ± 0.055 | 0.901 ± 0.016 | 0.765 ± 0.035 | 0.543 ± 0.021 | 0.249 ± 0.014 | 0.158 ± 0.0092 |
| Cc1cc(C)c(/C=C2\C(=O)Nc3ccccc32)[nH]1 [Semaxanib] | 0.968 ± 0.038 | 0.968 ± 0.024 | 0.938 ± 0.084 | 0.933 ± 0.067 | 0.936 ± 0.062 | 0.953 ± 0.067 | 0.979 ± 0.022 | 0.99 ± 0.028 | 0.963 ± 0.042 | 0.972 ± 0.031 | 0.8936 ± 0.0083 |
| CCc1cc2c(cc1N1CCC(N3CCOCC3)CC1)C(C)(C)c1[nH]c3cc(C#N)ccc3c1C2=O [Alectinib] | 1.03 ± 0.043 | 1.02 ± 0.063 | 1.05 ± 0.069 | 1.04 ± 0.036 | 1.07 ± 0.053 | 1.06 ± 0.046 | 1.09 ± 0.062 | 1.07 ± 0.069 | 1.09 ± 0.058 | 1.07 ± 0.076 | 1.08 ± 0.065 |
| Cn1cnc2c(F)c(Nc3ccc(Br)cc3F)c(C(=O)NOCCO)cc21 [Binimetinib] | 1.11 ± 0.046 | 1.06 ± 0.027 | 1.02 ± 0.059 | 1.05 ± 0.041 | 0.889 ± 0.038 | 0.724 ± 0.086 | 0.635 ± 0.041 | 0.584 ± 0.011 | 0.589 ± 0.02 | 0.583 ± 0.037 | 0.559 ± 0.026 |
| C=CC(=O)Nc1cccc(Oc2nc(Nc3ccc(N4CCN(C)CC4)cc3)nc3ccsc23)c1 [Olmutinib] | 1.01 ± 0.04 | 1.03 ± 0.011 | 1.02 ± 0.029 | 1.03 ± 0.034 | 1.034 ± 0.0086 | 1.01 ± 0.044 | 1.01 ± 0.011 | 1.02 ± 0.018 | 1.011 ± 0.0092 | 0.873 ± 0.05 | 0.625 ± 0.015 |
| CN1CCN(c2ccc3nc(-c4c(N)c5c(F)cccc5[nH]c4=O)[nH]c3c2)CC1 [Dovitinib] | 1.05 ± 0.054 | 1.04 ± 0.022 | 1.06 ± 0.015 | 1.08 ± 0.018 | 1.06 ± 0.045 | 1.05 ± 0.025 | 0.937 ± 0.097 | 0.891 ± 0.067 | 0.604 ± 0.03 | 0.402 ± 0.023 | 0.235 ± 0.022 |
| O=C(Cc1ccc(-c2ccc(OCCN3CCOCC3)cc2)cn1)NCc1ccccc1 [KX2-391] | 1.06 ± 0.031 | 1.05 ± 0.037 | 1.08 ± 0.029 | 1.03 ± 0.031 | 1.04 ± 0.034 | 0.912 ± 0.049 | 0.504 ± 0.037 | 0.472 ± 0.029 | 0.435 ± 0.014 | 0.443 ± 0.022 | 0.461 ± 0.028 |
| C[C@@H]1COCCN1c1cc(-c2ccnn2C)c2ccnc(-c3ccn[nH]3)c2n1 | 0.994 ± 0.054 | 1.01 ± 0.018 | 1.01 ± 0.014 | 1.04 ± 0.037 | 0.953 ± 0.043 | 0.867 ± 0.013 | 0.714 ± 0.047 | 0.452 ± 0.043 | 0.282 ± 0.012 | 0.229 ± 0.011 | 0.197 ± 0.0092 |
